These are literature values, as cited in US10603272B2, “Stimulation of appetite and treatment of anorexia in dogs and cats” (Kindred Biosciences, Inc., priority 2015, dated 2020).

As to `CN1CCN2c3ncccc3Cc3ccccc3C2C1` (stereo not shown) [mirtazapine], the solubility in water result is given as “insoluble in water”.
